Where “and” joins values, the source holds several entries; their conditions need not be identical. Equal entries are not always repeated. Results filed as inconclusive are left out.

Results on 22 molecules are retold here after PubChem BioAssay AID206 (DTP/NCI, 2004).

The test system of the test is nude mice, HT29 intrarenal xenograft, tumor weight T/C. The test is described as follows: NCI In Vivo Anticancer Drug Screen. Data for tumor model HT29;CX-1 Human Adenocarcinoma (MER+) (intrarenal inoculation) in NU/NU Swiss (nude) mice. Particulars: endpoint: mean tumor weight change, higher = larger tumour. How it is done: The antitumor activity of compounds was measured in mice bearing transplantable tumors. Survival or tumor size were measured and the results are expressed as the measurement made in the treated group (T) divided by the measurement made in the vehicle treated control group (C). The tumor model used in this assay is HT29;CX-1 Human Adenocarcinoma (MER+) (intrarenal inoculation) in NU/NU Swiss (nude) mice

Where [1] appears, read: dose: 150.0 mg/kg/injection, schedule: Q04DX004 (sc), vehicle: Klucel (hydroxypropylcellulose) (HPC).
Setting [2] is: dose: 300.0 mg/kg/injection, schedule: Q04DX004 (sc), vehicle: Klucel (hydroxypropylcellulose) (HPC).
The mark [3] stands for this setting: dose: 600.0 mg/kg/injection, schedule: Q04DX004 (sc), vehicle: Klucel (hydroxypropylcellulose) (HPC).
The mark [4] stands for this setting: dose: 1200.0 mg/kg/injection, schedule: Q04DX004 (sc), vehicle: Klucel (hydroxypropylcellulose) (HPC).
The mark [5] stands for this setting: dose: 2400.0 mg/kg/injection, schedule: Q04DX004 (sc), vehicle: Klucel (hydroxypropylcellulose) (HPC).
[6] abbreviates: dose: 150.0 mg/kg/injection, schedule: Q04DX004 (sc), vehicle: saline with Tween-80.
Where [7] appears, read: dose: 300.0 mg/kg/injection, schedule: Q04DX004 (sc), vehicle: saline with Tween-80.
The mark [8] stands for this setting: dose: 600.0 mg/kg/injection, schedule: Q04DX004 (sc), vehicle: saline with Tween-80.
Where [9] appears, read: dose: 100.0 mg/kg/injection, schedule: Q01DX010 (sc), vehicle: saline with Tween-80.
[10] abbreviates: dose: 75.0 mg/kg/injection, schedule: Q04DX004 (sc), vehicle: Klucel (hydroxypropylcellulose) (HPC).
Where [11] appears, read: dose: 400.0 mg/kg/injection, schedule: Q04DX004 (sc), vehicle: saline with Tween-80.
The mark [12] stands for this setting: dose: 800.0 mg/kg/injection, schedule: Q04DX004 (sc), vehicle: saline with Tween-80.
[13] abbreviates: dose: 1600.0 mg/kg/injection, schedule: Q04DX004 (sc), vehicle: saline with Tween-80.
Setting [14] is: dose: 150.0 mg/kg/injection, schedule: Q04DX004 (sc), vehicle: saline.
Setting [15] is: dose: 300.0 mg/kg/injection, schedule: Q04DX004 (sc), vehicle: saline.

With `[O-][n+]1c(CN2CCCCC2)nc2cccc3c2c1-c1ccccc1-3`, the T/C by setting is: under setting [1], 274 % of control; under setting [2], 150 % of control; under setting [3], 239 % of control; under setting [4], 303 % of control.

As for `Ic1ncnc2c1ncn2C1CCCO1` (stereo not drawn), the T/C is 55 % of control under setting [2], 112 % of control under setting [3] and 72 % of control under setting [5].

Consider `CO[C@H]1C[C@](C)(O)Cc2cc3c(c(O)c21)C(=O)c1c(O)cc2c(c1C3=O)O[C@@H]1O[C@@]2(C)[C@H](O)[C@@H](N(C)C)[C@@H]1O`, for which, under “dose: 50.0 mg/kg/injection, schedule: Q04DX004 (sc), vehicle: other”, the T/C was 99 % of control.

Regarding `Nc1nc(/C=C(/O)c2ccccc2)c2ncn(C3OC(CO)C(O)C3O)c2n1` (stereo not drawn), the T/C was 52 % of control (dose: 50.0 mg/kg/injection, schedule: Q04DX004 (sc), vehicle: distilled water + Tween-80); 70 % of control (dose: 100.0 mg/kg/injection, schedule: Q04DX004 (sc), vehicle: distilled water + Tween-80); 155 % of control (dose: 200.0 mg/kg/injection, schedule: Q04DX004 (sc), vehicle: distilled water + Tween-80); 80 % of control (dose: 400.0 mg/kg/injection, schedule: Q04DX004 (sc), vehicle: distilled water + Tween-80).

Turning to `CNc1cccnc1/C=N/NC(N)=S`, the T/C is 83 % of control (dose: 75.0 mg/kg/injection, schedule: Q04DX004 (sc), vehicle: saline with Tween-80); 110 % of control under setting [6]; 33 % of control under setting [7]; 58 % of control under setting [8].

Take `Clc1ccc(CN2COc3c(ccc4cccnc34)C2)cc1Cl`: the T/C was 73 % of control under setting [9]; 60 % of control and 72 % of control (dose: 400.0 mg/kg/injection, schedule: Q01DX010 (sc), vehicle: saline with Tween-80).

Regarding `O=Cc1ccc([N+](=O)[O-])s1`, the T/C is, setting by setting: (dose: 25.0 mg/kg/injection, schedule: Q01DX010 (sc), vehicle: saline with Tween-80) 166 % of control; (dose: 50.0 mg/kg/injection, schedule: Q01DX010 (sc), vehicle: saline with Tween-80) 176 % of control; under setting [9], 97 % of control.

For the molecule `O=C1NCC(Br)C(=O)N1` (stereo not drawn), the T/C was 68 % of control under setting [6], 50 % of control under setting [7] and 60 % of control under setting [8].

Consider `COC(=O)Nc1cn2cc(C(=O)c3cccs3)ccc2n1`, for which the T/C is 91 % of control under setting [10]; 65 % of control under setting [1]; 50 % of control under setting [2]; 54 % of control and 76 % of control under setting [3]; 67 % of control under setting [4]; 36 % of control under setting [5].

With `CC[PH+](CC)CC[S-].CC[PH+](CC)CC[S-].[Au+].[Au+]`, the T/C (dose: 160.0 mg/kg/injection, schedule: Q04DX004 (sc), vehicle: Klucel (hydroxypropylcellulose) (HPC)) was 152 % of control.

Regarding `NNC(=S)N/N=C/c1ccccn1`, the T/C is 100 % of control (dose: 15.0 mg/kg/injection, schedule: Q04DX004 (sc), vehicle: saline with Tween-80); 76 % of control (dose: 30.0 mg/kg/injection, schedule: Q04DX004 (sc), vehicle: saline with Tween-80); 86 % of control (dose: 60.0 mg/kg/injection, schedule: Q04DX004 (sc), vehicle: saline with Tween-80).

Take `CC1(C)CC23C4COC(=O)C2CCC1C3CC4=O` (stereo not drawn): the T/C was 56 % of control (dose: 25.0 mg/kg/injection, schedule: Q04DX004 (sc), vehicle: DMSO); 106 % of control (dose: 50.0 mg/kg/injection, schedule: Q04DX004 (sc), vehicle: DMSO); 103 % of control (dose: 100.0 mg/kg/injection, schedule: Q04DX004 (sc), vehicle: DMSO); 56 % of control (dose: 300.0 mg/kg/injection, schedule: Q04DX004 (sc), vehicle: DMSO); 64 % of control (dose: 600.0 mg/kg/injection, schedule: Q04DX004 (sc), vehicle: DMSO); 88 % of control (dose: 1200.0 mg/kg/injection, schedule: Q04DX004 (sc), vehicle: DMSO). The T/C (dose: 2400.0 mg/kg/injection, schedule: Q04DX004 (sc), vehicle: DMSO) is 114 % of control.

On to `C[C@@H]1C[C@H]2[C@@H]3CCC4=CC(=O)C=C[C@]4(C)[C@@]3(F)[C@@H](O)C[C@]2(C)[C@@]1(O)C(=O)CO`, for which the T/C is, setting by setting: (dose: 1.56 mg/kg/injection, schedule: Q01DX010 (sc), vehicle: Klucel (hydroxypropylcellulose) (HPC)) 62 % of control; (dose: 3.13 mg/kg/injection, schedule: Q01DX010 (sc), vehicle: Klucel (hydroxypropylcellulose) (HPC)) 40 % of control; (dose: 6.25 mg/kg/injection, schedule: Q01DX010 (sc), vehicle: Klucel (hydroxypropylcellulose) (HPC)) 42 % of control; (dose: 12.5 mg/kg/injection, schedule: Q01DX010 (sc), vehicle: Klucel (hydroxypropylcellulose) (HPC)) 39 % of control.

Take `C[C@]12CC[C@@H]3c4ccc(OC(=O)Cc5ccc(N(CCCl)CCCl)cc5)cc4CC[C@H]3[C@@H]1CC[C@@H]2OC(=O)Cc1ccc(N(CCCl)CCCl)cc1`: the T/C by setting is: (dose: 200.0 mg/kg/injection, schedule: Q04DX004 (sc), vehicle: saline with Tween-80) 106 % of control; under setting [11], 70 % of control; under setting [12], 113 % of control; under setting [13], 111 % of control.

For the molecule `CS(C)=O`, the T/C runs as follows: (dose: 750.0 mg/kg/injection, schedule: Q01DX010 (sc), vehicle: saline) 36 % of control; (dose: 1500.0 mg/kg/injection, schedule: Q01DX010 (sc), vehicle: saline) 31 % of control; (dose: 3000.0 mg/kg/injection, schedule: Q01DX010 (sc), vehicle: saline) 89 % of control; (dose: 6000.0 mg/kg/injection, schedule: Q01DX010 (sc), vehicle: saline) 75 % of control.

`NCC1CCC(C(=O)O)CC1` (stereo not drawn): the T/C runs as follows: under setting [11], 119 % of control; under setting [12], 93 % of control; under setting [13], 112 % of control.

On to `O=NN(CCF)C(=O)NC1CCCCC1`, for which the T/C (dose: 6.25 mg/kg/injection, schedule: Q04DX004 (sc), vehicle: Klucel (hydroxypropylcellulose) (HPC)) was 55 % of control; the T/C (dose: 12.5 mg/kg/injection, schedule: Q04DX004 (sc), vehicle: Klucel (hydroxypropylcellulose) (HPC)) is 30 % of control; the T/C (dose: 25.0 mg/kg/injection, schedule: Q04DX004 (sc), vehicle: Klucel (hydroxypropylcellulose) (HPC)) was 62 % of control.

On to `O=c1[nH]cnc2n[nH]nc12`, for which the T/C was 94 % of control under setting [2], 50 % of control under setting [3] and 30 % of control under setting [5].

Take `CC1=CC(C)(C)Nc2ccc(CSc3ccccc3)cc21`: the T/C by setting is: (dose: 75.0 mg/kg/injection, schedule: Q01DX010 (sc), vehicle: saline + Tween-80 + alcohol) 53 % of control; (dose: 150.0 mg/kg/injection, schedule: Q01DX010 (sc), vehicle: saline + Tween-80 + alcohol) 74 % of control; (dose: 300.0 mg/kg/injection, schedule: Q01DX010 (sc), vehicle: saline + Tween-80 + alcohol) 50 % of control; (dose: 600.0 mg/kg/injection, schedule: Q01DX010 (sc), vehicle: saline + Tween-80 + alcohol) 66 % of control.

As to `NC(=O)NO`, the T/C runs as follows: (dose: 37.5 mg/kg/injection, schedule: Q04DX004 (sc), vehicle: saline) 75 % of control; (dose: 75.0 mg/kg/injection, schedule: Q04DX004 (sc), vehicle: saline) 79 % of control; under setting [14], 75 % of control; under setting [15], 86 % of control.

Turning to `NC(N)=NOCC[C@@H](N)C(=O)O`, the T/C is 108 % of control under setting [14]; 75 % of control under setting [15]; 76 % of control (dose: 600.0 mg/kg/injection, schedule: Q04DX004 (sc), vehicle: saline); 62 % of control (dose: 1200.0 mg/kg/injection, schedule: Q04DX004 (sc), vehicle: saline).

Turning to `NC(=O)c1ncn(C2OC(CO)C(O)C2O)c1O` (stereo not drawn), the T/C by setting is: (dose: 37.5 mg/kg/injection, schedule: Q04DX004 (sc), vehicle: Klucel (hydroxypropylcellulose) (HPC)) 76 % of control; under setting [10], 77 % of control; under setting [1], 71 % of control; under setting [2], 62 % of control.
